Results from patent US7605168B2 (Plexxikon, Inc., priority 2004, dated 2009).

Key:
[1] = molecular target: T1, PDE4B: catalytic domain of human PDE4B from S152-S528 (Homo sapiens, UniProt Q07343); test: PDE4 IC50 determination by Scintillation Proximity Assay (SPA), PDE4B catalytic domain; assay type: biochemical; conditions: [3H]cAMP SPA, 30 min at 30° C.
T1 construct: The catalytic domain of human PDE4B from S152-S528; His6 (N, cleaved yes); thrombin cleavage site (N, cleaved yes); made in house; host or cells: E. coli BL21 (DE3) RIL
Experimental: (§1) IC50s were determined by Scintillation Proximity Assay (SPA). The principle of the assay is based on the fact that cAMP, the PDE4 substrate, binds weakly to Yittrium Silicate SPA beads, whereas AMP, the product of PDE4 hydrolysis binds strongly. Thus, the extent of PDE4 hydrolysis of a sample of [^3H]cAMP can be measured because only the [^3H]AMP produced by PDE4 hydrolysis will bind to the SPA beads and produce a scintillation signal.
Enzyme was stored in 50% glycerol at −20°.
(§2) In addition to the compound dilutions, each assay plate contained control wells with 1 μl of DMSO (to define 0% enzyme inhibition) or 1 μl of 200 μM roflumilast (to define 100% enzyme inhibition). Using a Beckman FX robot, 10 μl of [^3H] cAMP (Amersham TRK559) at […] in assay buffer (50 mM Tris, pH 7.5; 8.3 mM MgCl; 1.7 mM EGTA; 0.01% BSA) was transferred to each assay well. Next, 10 μl of PDE4 enzyme in assay buffer was added and the plates were shaken for 30 s. at 1000 rpm to start the cAMP hydrolysis reaction. The concentrations of enzyme used were: PDE4B, 80 ng/ml; PDE4D, 4 ng/ml; PDE4B2, 2.5 μl of 50% glycerol stock/ml; PDE4D5 0.083 μl of 50% glycerol stock/ml. Assay plates were covered and incubated for 30 min. at 30° C. Reactions were stopped by robotic addition of 10 μl of 5 mg/ml SPA beads (Amersham RPNQ0013) in 18 mM ZnSO4. The assay plates were covered with clear plastic film, centrifuged for 1 min. at 1000 RPM to settle the SPA beads, and counted using a Wallac TriLux scintillation counter. IC50's were calculated from the raw assay data by non-linear regression curve fitting using the Assay Explorer software package from MDL.

[2] = molecular target: T2, PDE4D5: full-length human PDE4D5 isozyme (Homo sapiens, UniProt Q08499); test: PDE4 IC50 determination by Scintillation Proximity Assay (SPA), full-length PDE4D5; assay type: biochemical; conditions: cell lysate, [3H]cAMP SPA
T2 construct: made in house; host or cells: baculovirus infected insect cells (pFastBacHT)
Experimental: (§3) The enzyme was not purified from the cell lysates, so enzyme concentrations were not determined. Enzyme was stored in 50% glycerol at −20°.
as §1, §2

[3] = molecular target: T3, PDE4B2: full-length human PDE4B2 isozyme (Homo sapiens, UniProt Q07343); test: PDE4 IC50 determination by Scintillation Proximity Assay (SPA), full-length PDE4B2; assay type: biochemical; conditions: cell lysate, [3H]cAMP SPA
T3 construct: made in house; host or cells: baculovirus infected insect cells (pFastBacHT)
Experimental: as §3, §1, §2

[4] = tested on: TNF-α release from whole blood cultures stimulated with LPS; test: IC50 by TNF alpha production upon stimulation of whole blood cultures with LPS; assay type: cell-based; conditions: human whole blood (buffy coat) culture, 100 ng/ml LPS, 4 hours; read-out: h TNFα IC50
Experimental: Compounds were assayed to generate IC50 numbers based on the inhibition of TNF-α release from whole blood cultures, using the following assay protocol (see Table 5 for compounds tested and results). Inhibition of PDE4B results in the inhibition of TNF-α release by whole blood cultures stimulated with lipopolysaccharide (LPS). The measurement of TNF-α release was used to assess compounds as PDE4B inhibitors.
Compounds were provided in DMSO at 20 mM and 2 μl per well was added to one row of a dilution plate. Added 98 μl of RPMI 1640 media with 2.5% heat inactivated FBS to each well containing compound. The same media with 2% DMSO was prepared and 60 μl was added to each of the empty wells in the dilution plate. The compound was serially diluted 1:3 (30 μl to 60 μl of media) for a total of 8 concentrations per compound. Wells were also prepared with 50 μM roflumilast and piclamilast as 100% inhibition controls, and 2% DMSO in media was used as 0% inhibition control. A 20 μl aliquot of each sample was transferred to an assay plate in duplicate.
Human buffy coat was obtained from the Stanford Medical School Blood Center and diluted with 7 volumes of RPMI 1640 media with 1% penicillin/streptomycin and 2.5% heat inactivated FBS. A 160 μl aliquot of the diluted blood was added to each well of the assay plates, mixed and incubated for 1 hour at 37° C. in 5% CO2. LPS (Sigma catalog number L2637) that had been diluted to 1 mg/ml in PBS and stored as 20 μl aliquots at −20° C. was thawed and diluted 1000× to 1 μg/ml. A 20 μl aliquot of this was added to each sample (final concentration 100 ng/ml LPS) after the 1 hour incubation. A background sample was prepared without addition of LPS as well. The samples were mixed on a shaker for one minute at 900 RPM and incubated for 4 hours at 37° C. in 5% CO2. The plates were then put on a shaker for one minute at 900 RPM, followed by centrifuging at 100×g for 10 minutes, deceleration setting of 5. The top 75 μl of supernatant was carefully pipetted to a new plate and frozen at −20° C.
A 50 μl aliquot of incubation buffer (Biosource International Immunoassay Kit:Human TNF-α catalog number KHC3011) was added to each well of a plate coated with monoclonal antibody specific for hTNF-α (Biosource kit). The supernatant blood samples were thawed and a 50 μl aliquot along with 50 μl of diluent buffer (Biosource kit) were added to incubation buffer and the samples were incubated for 2 hours at room temperature. The samples were washed 4 times with 300 μl/well wash buffer (Biosource kit). A 100 μl aliquot of biotinylated anti-TNFalpha (Biosource kit) was added and the samples incubated for 1 hour at room temperature. The samples were washed 4 times with 300 μl/well wash buffer. A 100 μl aliquot of Streptavidin-HRP solution (BioSource kit) was added and the samples incubated for 30 minutes at room temperature. The samples were washed 4 times with 300 μl/well wash buffer. A 100 μl aliquot of Chromagen (Biosource kit) was added and the samples incubated in the dark for 30 minutes. A 100 μl aliquot of stop solution (2N H2SO4) was added to each sample and samples were read at 450 nm on a WallacVictor for 0.1 sec/well.

T1 sequence (Q07343 324-700): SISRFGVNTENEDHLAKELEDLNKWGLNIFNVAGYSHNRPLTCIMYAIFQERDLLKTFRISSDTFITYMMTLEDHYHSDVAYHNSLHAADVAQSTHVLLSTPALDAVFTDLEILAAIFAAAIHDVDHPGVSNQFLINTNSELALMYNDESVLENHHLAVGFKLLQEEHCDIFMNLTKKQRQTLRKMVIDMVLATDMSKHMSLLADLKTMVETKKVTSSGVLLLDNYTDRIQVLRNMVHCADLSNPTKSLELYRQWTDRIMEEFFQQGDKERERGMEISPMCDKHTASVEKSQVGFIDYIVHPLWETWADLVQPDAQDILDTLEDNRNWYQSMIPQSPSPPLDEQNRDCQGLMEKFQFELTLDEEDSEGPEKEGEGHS
T3 sequence (Q07343 with tags, fused parts or gaps isoform Q07343-2): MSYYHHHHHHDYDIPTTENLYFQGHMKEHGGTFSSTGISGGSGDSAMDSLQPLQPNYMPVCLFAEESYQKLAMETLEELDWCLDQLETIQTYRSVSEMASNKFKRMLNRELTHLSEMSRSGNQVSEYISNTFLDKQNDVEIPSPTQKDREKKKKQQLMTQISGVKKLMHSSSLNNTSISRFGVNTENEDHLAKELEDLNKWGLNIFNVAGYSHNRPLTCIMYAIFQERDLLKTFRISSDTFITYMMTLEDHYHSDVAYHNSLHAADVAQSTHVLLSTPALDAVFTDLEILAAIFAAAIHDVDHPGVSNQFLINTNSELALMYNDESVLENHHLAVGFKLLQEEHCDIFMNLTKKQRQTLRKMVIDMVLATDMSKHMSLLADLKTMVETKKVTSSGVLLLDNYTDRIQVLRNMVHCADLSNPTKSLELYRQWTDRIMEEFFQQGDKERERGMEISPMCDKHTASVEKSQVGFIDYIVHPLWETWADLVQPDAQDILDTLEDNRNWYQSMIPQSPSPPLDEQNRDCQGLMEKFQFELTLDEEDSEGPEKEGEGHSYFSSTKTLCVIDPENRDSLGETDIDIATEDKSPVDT
T2 sequence (Q08499 with tags, fused parts or gaps isoform Q08499-6): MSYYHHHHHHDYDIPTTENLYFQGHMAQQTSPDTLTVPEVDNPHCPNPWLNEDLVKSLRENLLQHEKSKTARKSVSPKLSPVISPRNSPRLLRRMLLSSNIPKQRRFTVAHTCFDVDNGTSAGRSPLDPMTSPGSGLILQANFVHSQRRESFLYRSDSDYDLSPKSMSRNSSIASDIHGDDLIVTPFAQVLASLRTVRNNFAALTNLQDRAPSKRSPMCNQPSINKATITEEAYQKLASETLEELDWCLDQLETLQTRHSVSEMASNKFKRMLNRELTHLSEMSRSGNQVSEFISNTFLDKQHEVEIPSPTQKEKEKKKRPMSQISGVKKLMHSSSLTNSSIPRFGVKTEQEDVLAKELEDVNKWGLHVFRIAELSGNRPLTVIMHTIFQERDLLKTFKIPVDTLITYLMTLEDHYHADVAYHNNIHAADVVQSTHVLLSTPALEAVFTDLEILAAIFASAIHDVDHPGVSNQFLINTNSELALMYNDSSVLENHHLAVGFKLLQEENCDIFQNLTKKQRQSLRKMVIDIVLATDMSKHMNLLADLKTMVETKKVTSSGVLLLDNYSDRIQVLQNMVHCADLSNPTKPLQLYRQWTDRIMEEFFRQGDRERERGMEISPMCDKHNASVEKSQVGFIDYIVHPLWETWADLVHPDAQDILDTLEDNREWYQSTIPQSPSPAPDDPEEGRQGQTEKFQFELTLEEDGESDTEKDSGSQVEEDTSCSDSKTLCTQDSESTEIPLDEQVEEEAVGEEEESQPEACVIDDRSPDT

IC50 [1] | IC50 [2] | IC50 [3] | IC50 [4] | Compound
< 10 µM | < 10 µM | < 10 µM | > 10 µM | CCOc1cc([N+](=O)[O-])ccc1C(=O)n1cc(-c2ccc(OC)c(OC)c2)c2cccnc21 [Compound 54, [3-(3,4-Dimethoxy-phenyl)-pyrrolo[2,3-b]pyridin-1-yl]-(2-ethoxy-4-nitro-phenyl)-methanone]
< 10 µM | < 10 µM | < 10 µM | ≤ 10 µM | COc1ccc(-c2cn(S(=O)(=O)c3ccc(-c4cnco4)cc3)c3ncccc23)cc1OC [Compound 70, 3-(3,4-Dimethoxy-phenyl)-1-(4-oxazol-5-yl-benzenesulfonyl)-1H-pyrrolo[2,3-b]pyridine]
< 10 µM | < 10 µM | < 10 µM | ≤ 10 µM | COc1ccc(-c2cn(C(=O)c3cccnc3Cl)c3ncccc23)cc1OC [Compound 59, [3-(3,4-Dimethoxy-phenyl)-pyrrolo[2,3-b]pyridin-1-yl]-(2-chloropyridin-3-yl)-methanone-amide]
< 10 µM | < 10 µM | < 10 µM | > 10 µM | COc1ccc(-c2cn(S(=O)(=O)c3csc4ccccc34)c3ncccc23)cc1OC [Compound 91, 1-(Benzo[b]thiophene-3-sulfonyl)-3-(3,4-dimethoxy-phenyl)-1H-pyrrolo[2,3-b]pyridine]
< 10 µM | < 10 µM | < 10 µM | ≤ 10 µM | COc1cc(NC(=O)n2cc(-c3ccc(OC)c(OC)c3)c3cccnc32)cc(OC)c1 [Compound 29, 3-(3,4-Dimethoxy-phenyl)-pyrrolo[2,3-b]pyridine-1-carboxylic acid (3,5-dimethoxy-phenyl)-amide]
< 10 µM | < 10 µM | < 10 µM | ≤ 10 µM | COc1ccc(-c2cn(Cc3ccccc3CS(=O)(=O)c3ccccc3)c3ncccc23)cc1OC [Compound 74, 1-(2-Benzenesulfonylmethyl-benzyl)-3-(3,4-dimethoxy-phenyl)-1H-pyrrolo[2,3-b]pyridine]
< 10 µM | < 10 µM | < 10 µM | ≤ 10 µM | COc1ccc(-c2cn(S(=O)(=O)c3cccc(-c4cnco4)c3)c3ncccc23)cc1OC [Compound 72, 3-(3,4-Dimethoxy-phenyl)-1-(3-oxazol-5-yl-benzenesulfonyl)-1H-pyrrolo[2,3-b]pyridine]
< 10 µM | < 10 µM | < 10 µM | ≤ 10 µM | COc1ccc(-c2cn(S(=O)(=O)c3ccc4ccccc4c3)c3ncccc23)cc1OC [Compound 11, 3-(3,4-Dimethoxy-phenyl)-1-(naphthalene-2-sulfonyl)-1H-pyrrolo[2,3-b]pyridine]
< 10 µM | < 10 µM | < 10 µM | > 10 µM | COc1ccc(-c2cn(C(=O)c3cnccc3C(F)(F)F)c3ncccc23)cc1OC [Compound 57, [3-(3,4-Dimethoxy-phenyl)-pyrrolo[2,3-b]pyridin-1-yl]-(4-trifluoromethypyridn-3-yl)-methanone-amide]
< 10 µM | < 10 µM | < 10 µM | ≤ 10 µM | COc1ccc(-c2cn(C(=S)Nc3ccccc3)c3ncccc23)cc1OC [Compound 41, 3-(3,4-dimethoxy-phenyl)-pyrrolo[2,3-b]pyridine-1-carbothioic acid phenylamide]
< 10 µM | < 10 µM | < 10 µM | ≤ 10 µM | COc1ccc(-c2cn(C(=O)c3ccc(C)c4ccccc34)c3ncccc23)cc1OC [Compound 114, [3-(3,4-Dimethoxy-phenyl)-pyrrolo[2,3-b]pyridin-1-yl]-(4-methyl-naphthalen-1-yl)-methanone]
< 10 µM | < 10 µM | < 10 µM | ≤ 10 µM | COc1ccc(NC(=O)n2cc(-c3ccc(OC)c(OC)c3)c3cccnc32)cc1Cl [Compound 27, 3-(3,4-Dimethoxy-phenyl)-pyrrolo[2,3-b]pyridine-1-carboxylic acid (3-chloro-4-methoxy-phenyl)-amide]
< 10 µM | < 10 µM | < 10 µM | ≤ 10 µM | COc1ccc(-c2cn(S(=O)(=O)c3ccc(-c4nnc(C)o4)cc3)c3ncccc23)cc1OC [Compound 73, 3-(3,4-Dimethoxy-phenyl)-1-[4-(5-methyl-[1,3,4]oxadiazol-2-yl)-benzenesulfonyl]-1H-pyrrolo[2,3-b]pyridine]
< 10 µM | < 10 µM | < 10 µM | ≤ 10 µM | COc1ccc(-c2cn(Cc3ccc(C#N)cc3)c3ncccc23)cc1OC [Compound 77, 4-[3-(3,4-Dimethoxy-phenyl)-pyrrolo[2,3-b]pyridin-1-ylmethyl]-benzonitrile]
< 10 µM | < 10 µM | < 10 µM | ≤ 10 µM | COc1ccc(-c2cn(C(=O)c3cccc4ccccc34)c3ncccc23)cc1OC [Compound 58, [3-(3,4-Dimethoxy-phenyl)-pyrrolo[2,3-b]pyridin-1-yl]-(1-naphthyl)-methanone-amide]
< 10 µM | < 10 µM | < 10 µM | ≤ 10 µM | COc1ccc(-c2cn(C(=O)Nc3ccc(Cl)c(Cl)c3)c3ncccc23)cc1OC [Compound 37, 3-(3,4-Dimethoxy-phenyl)-pyrrolo[2,3-b]pyridine-1-carboxylic acid (3,4-dichloro-phenyl)-amide]
< 10 µM | < 10 µM | < 10 µM | ≤ 10 µM | COc1ccc(-c2cn(C(=O)Nc3cccc(C(C)=O)c3)c3ncccc23)cc1OC [Compound 34, 3-(3,4-Dimethoxy-phenyl)-pyrrolo[2,3-b]pyridine-1-carboxylic acid (3-acetyl-phenyl)-amide]
< 10 µM | < 10 µM | < 10 µM | ≤ 10 µM | COc1ccc(-c2cn(S(=O)(=O)Cc3cccc(Cl)c3)c3ncccc23)cc1OC [Compound 9, 1-(3-chloro-phenylmethanesulfonyl)-3-(3,4-dimethoxy-phenyl)-1H-pyrrolo[2,3-b]pyridine]
